{
  "source": "paper PMC10584882",
  "about": "(Communications Biology, 2023)",
  "key": {"[1]": {"biological_target": "T1, human CatV (Homo sapiens, UniProt O60911)", "T1 construct": "made in house", "T1 sequence (O60911 114-334)": "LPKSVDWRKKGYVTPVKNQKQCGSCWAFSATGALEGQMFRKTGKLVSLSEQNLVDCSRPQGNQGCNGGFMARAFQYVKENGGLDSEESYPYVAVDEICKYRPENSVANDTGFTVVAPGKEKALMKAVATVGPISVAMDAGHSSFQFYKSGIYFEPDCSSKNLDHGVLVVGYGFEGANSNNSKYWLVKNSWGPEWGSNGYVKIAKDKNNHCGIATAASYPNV", "assay": "Cathepsin inhibition test, CatV", "type": "biochemical", "conditions": "Fig. S3 panel c, single replicates"}, "[2]": {"biological_target": "T2, CatL (Homo sapiens, UniProt P07711)", "T2 construct": "made in house", "T2 sequence (P07711 114-333)": "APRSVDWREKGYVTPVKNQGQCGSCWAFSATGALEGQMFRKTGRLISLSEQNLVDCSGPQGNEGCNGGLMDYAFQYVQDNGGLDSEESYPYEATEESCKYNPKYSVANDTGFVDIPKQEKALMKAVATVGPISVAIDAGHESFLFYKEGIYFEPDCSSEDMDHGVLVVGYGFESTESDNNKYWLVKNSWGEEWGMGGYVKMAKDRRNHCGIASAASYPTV", "assay": "Cathepsin inhibition test, CatL", "type": "biochemical", "conditions": "for Residual activity (Vi/V0): Fig. S3 panel b, single replicates"}, "[3]": {"biological_target": "T3, human CatK (Homo sapiens, UniProt P43235)", "T3 construct": "made in house", "T3 sequence (P43235 115-329)": "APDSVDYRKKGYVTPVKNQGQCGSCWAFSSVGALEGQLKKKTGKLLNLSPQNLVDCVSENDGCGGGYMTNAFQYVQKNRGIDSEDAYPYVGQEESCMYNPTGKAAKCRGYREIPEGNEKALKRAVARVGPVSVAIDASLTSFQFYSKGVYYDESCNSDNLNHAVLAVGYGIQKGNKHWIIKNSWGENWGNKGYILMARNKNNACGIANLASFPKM", "assay": "Cathepsin inhibition test, CatK", "type": "biochemical", "conditions": "Fig. S3 panel a, single replicates"}, "[4]": {"test_system": "SARS-CoV-2-GFP", "assay": "microbe, parasite or virus in culture", "type": "cell-based", "conditions": "mean with standard error, read-out: VERO E6 EC50"}, "[5]": {"conditions": "inhibitor 0.105 nM, 0.000105 µM"}, "[6]": {"conditions": "inhibitor 0.189 nM, 0.000189 µM"}, "[7]": {"conditions": "inhibitor 0.612 nM, 0.000612 µM"}, "[8]": {"conditions": "inhibitor 1.103 nM, 0.001103 µM"}, "[9]": {"conditions": "inhibitor 1.985 nM, 0.001985 µM"}, "[10]": {"conditions": "inhibitor 3.572 nM, 0.003572 µM"}, "[11]": {"conditions": "inhibitor 11.547 nM, 0.011547 µM"}, "[12]": {"conditions": "inhibitor 20.833 nM, 0.020833 µM"}},
  "note": "Where “and” joins values, the source holds several entries; their conditions need not be identical. Equal values may be shown once.",
  "data": [
    {"smiles": "CC(C)C[C@H](NC(=O)OCc1ccccc1)C(=O)N[C@@H](C[C@@H]1CCNC1=O)C(O)S(=O)(=O)[O-].[Na+]", "note": "(stereo partly drawn) [GC376]", "values": [
      {"measurement": "Residual activity (Vi/V0)", "setting": "[1]; inhibitor 0.010 nM, 10 pM", "result": "1.0857 and 1.077 and 0.9774 and 0.8982 and 0.991 and 0.8512 and 1.1 and 0.8679"},
      {"measurement": "Residual activity (Vi/V0)", "setting": "[1]; inhibitor 0.018 nM, 18 pM", "result": "1.336 and 1.266 and 0.9662 and 0.9302 and 1.04 and 0.8965 and 1.124 and 0.9597"},
      {"measurement": "Residual activity (Vi/V0)", "setting": "[1]; inhibitor 0.032 nM, 32 pM", "result": "1.039 and 0.8981 and 0.9517 and 0.9088 and 1.019 and 0.9688 and 1.292 and 0.8604"},
      {"measurement": "Residual activity (Vi/V0)", "setting": "[1]; inhibitor 0.058 nM, 58 pM", "result": "0.6518 and 0.5159 and 0.8896 and 0.8461 and 0.9826 and 0.9436 and 1.221 and 0.8427"},
      {"measurement": "Residual activity (Vi/V0)", "setting": "[1]; [5]", "result": "0.9622 and 0.7389 and 0.9442 and 0.8081 and 0.8801 and 0.8142 and 1.285 and 0.7581"},
      {"measurement": "Residual activity (Vi/V0)", "setting": "[1]; [6]", "result": "0.6972 and 0.4428 and 0.8137 and 0.7094 and 0.8934 and 0.7434 and 1.066 and 0.6389"},
      {"measurement": "Residual activity (Vi/V0)", "setting": "[1]; inhibitor 0.340 nM, 0.00034 µM", "result": "0.6247 and 0.3497 and 0.4956 and 0.4527 and 0.4873 and 0.5939 and 0.9738 and 0.4752"},
      {"measurement": "Residual activity (Vi/V0)", "setting": "[1]; [7]", "result": "0.3307 and 0.2457 and 0.4411 and 0.4505 and 0.4917 and 0.4681 and 0.5327 and 0.3674"},
      {"measurement": "Residual activity (Vi/V0)", "setting": "[1]; [8]", "result": "0.3031 and 0.1765 and 0.2948 and 0.2868 and 0.2798 and 0.3141 and 0.3564 and 0.2414"},
      {"measurement": "Residual activity (Vi/V0)", "setting": "[2]; [6]", "result": "0.8855 and 0.7968 and 0.4672 and 0.774 and 0.5436 and 0.6444 and 0.6384 and 0.5984 and 0.8706 and 0.7685"},
      {"measurement": "Residual activity (Vi/V0)", "setting": "[2]; inhibitor 0.340 nM, 0.00034 µM", "result": "0.6489 and 0.6117 and 0.2724 and 0.4771 and 0.3326 and 0.4189 and 0.397 and 0.4003 and 0.6575 and 0.5962"},
      {"measurement": "Residual activity (Vi/V0)", "setting": "[2]; [7]", "result": "0.6544 and 0.4591 and 0.279 and 0.4155 and 0.2277 and 0.7268 and 0.6794 and 0.7031 and 0.6487 and 0.6608"},
      {"measurement": "Residual activity (Vi/V0)", "setting": "[2]; [8]", "result": "0.448 and 0.2903 and 0.222 and 0.2673 and 0.2098 and 0.5439 and 0.5159 and 0.5223 and 0.4578 and 0.481"},
      {"measurement": "Residual activity (Vi/V0)", "setting": "[2]; [9]", "result": "0.2589 and 0.1857 and 0.1649 and 0.2093 and 0.1658 and 0.3522 and 0.3323 and 0.3518 and 0.2487 and 0.2662"},
      {"measurement": "Residual activity (Vi/V0)", "setting": "[2]; [10]", "result": "0.2062 and 0.1428 and 0.1169 and 0.1623 and 0.08981 and 0.207 and 0.1929 and 0.2019 and 0.196 and 0.2135"},
      {"measurement": "Residual activity (Vi/V0)", "setting": "[2]; inhibitor 6.430 nM, 0.00643 µM", "result": "0.139 and 0.09925 and 0.07105 and 0.118 and 0.08137 and 0.1289 and 0.127 and 0.1302 and 0.1295 and 0.1384"},
      {"measurement": "Residual activity (Vi/V0)", "setting": "[2]; [11]", "result": "0.09523 and 0.05909 and 0.04564 and 0.05812 and 0.04092 and 0.07914 and 0.07029 and 0.07354 and 0.08822 and 0.09606"},
      {"measurement": "Residual activity (Vi/V0)", "setting": "[2]; [12]", "result": "0.05198 and 0.03378 and 0.02298 and 0.02931 and 0.02488 and 0.02998 and 0.02815 and 0.0288 and 0.05176 and 0.05151"},
      {"measurement": "Residual activity (Vi/V0)", "setting": "[2]; inhibitor 37.500 nM, 0.0375 µM", "result": "0.02351 and 0.02002 and 0.01036 (2×) and 0.01453 and 0.0114 and 0.01064 and 0.01075 and 0.02418 and 0.02491"},
      {"measurement": "Residual activity (Vi/V0)", "setting": "[3]; inhibitor 0.010 nM, 10 pM", "result": "1 and 1.168 and 0.9786 and 1.164 and 0.971"},
      {"measurement": "Residual activity (Vi/V0)", "setting": "[3]; inhibitor 0.018 nM, 18 pM", "result": "1.045 and 0.9537 and 0.8787 and 1.068 and 0.891"},
      {"measurement": "Residual activity (Vi/V0)", "setting": "[3]; inhibitor 0.032 nM, 32 pM", "result": "1.008 and 0.9541 and 1.052 and 1.097 and 0.9731"},
      {"measurement": "Residual activity (Vi/V0)", "setting": "[3]; inhibitor 0.058 nM, 58 pM", "result": "0.9618 and 1.104 and 1"},
      {"measurement": "Residual activity (Vi/V0)", "setting": "[3]; [5]", "result": "0.7126 and 0.7756 and 0.8857 and 0.9962 and 0.9154"},
      {"measurement": "Residual activity (Vi/V0)", "setting": "[3]; [6]", "result": "0.687 and 0.7701 and 0.8381 and 0.9358 and 0.9354"},
      {"measurement": "Residual activity (Vi/V0)", "setting": "[3]; inhibitor 0.340 nM, 0.00034 µM", "result": "0.5857 and 0.5656 and 0.9002 and 0.8293 and 0.7129"},
      {"measurement": "Residual activity (Vi/V0)", "setting": "[3]; [7]", "result": "0.5454 and 0.3889 and 0.8833 and 0.6839 and 0.5394"},
      {"measurement": "Residual activity (Vi/V0)", "setting": "[3]; [8]", "result": "0.3854 and 0.2819 and 0.6231 and 0.4604 and 0.4262"},
      {"measurement": "Residual activity (Vi/V0)", "setting": "[3]; [9]", "result": "0.2545 and 0.4374 and 0.3426 and 0.223"},
      {"measurement": "Residual activity (Vi/V0)", "setting": "[3]; [10]", "result": "0.1189 and 0.1895 and 0.3494 and 0.2326 and 0.2097"},
      {"measurement": "Residual activity (Vi/V0)", "setting": "[3]; inhibitor 6.430 nM, 0.00643 µM", "result": "0.1182 and 0.1529 (2×) and 0.2134 and 0.1788"},
      {"measurement": "Residual activity (Vi/V0)", "setting": "[3]; [11]", "result": "0.09726 and 0.09205 and 0.1617 and 0.0793 and 0.08002"},
      {"measurement": "Residual activity (Vi/V0)", "setting": "[3]; [12]", "result": "-0.01061 and 0.0635 and 0.09619 and 0.03724 and 0.04497"},
      {"measurement": "Residual activity (Vi/V0)", "setting": "[3]; inhibitor 37.500 nM, 0.0375 µM", "result": "0.05483 and -0.02967 and 0.05665 and 0.01671"}
    ]},
    {"smiles": "CC(C)C[C@H](NC(=O)OCc1ccccc1)C(=O)N[C@@H](CC1CCNC1=O)C(O)S(=O)(=O)O", "note": "(stereo partly drawn) [GC-376, reference compound]", "values": [
      {"measurement": "Ki", "setting": "[2]; mean with standard deviation and 95% confidence interval, pH 5.5, 37 °C", "result": 0.259, "unit": "nM"},
      {"measurement": "EC50", "setting": "[4]", "result": "1070 ± 278", "unit": "nM"}
    ]}
  ]
}
